{
  "source": "patent US7786077B2",
  "about": "“Insulins combinations” (priority 2005, dated 2010)",
  "system": "Streptozotocin-injected male Wistar rats",
  "experiment": "Glycemia over 24 days in streptozotocin (60 mg/kg) rats given betaine in drinking water (Example 4)",
  "type": "in vivo, rat",
  "conditions": "200 mg/kg/day in drinking water, STZ 60 mg/kg rats, FIG. 4",
  "method": "Male Wistar rats (+250 g) after 1 week stabulation are injected Streptozotocin 60 mg/kg intraperitoneally. Animals (n=8/group) were fed with normal chow and water ad libitum during 5 days, then at day 1 (T0) Betaine (200 mg/kg/day) or placebo were dissolved and administrated daily in drinking water during 24 days; full access to normal chow was maintained during the whole experiments. Glycemia was measured morning at days of experiments, in non-fastened rats (as in previous exp.). At T0+7 days the treatments were inverted between the 2 groups.",
  "data": [
    {"compound": "C[N+](C)(C)CC(=O)O", "note": "[glycine betaine]", "values": [
      {"measurement": "effect on the regulation of blood glucose", "value": "per se possesses an effect on the regulation of blood glucose"}
    ]}
  ]
}
